Experimental data published in patent publication US9695155B2, “Herbicidal substituted pyrimidinyloxy benzene compounds” (E. I. DU PONT DE NEMOURS AND COMPANY, priority 2013, dated 2017).

Legend:
[1] = tested on: large (Lg) crabgrass; experiment: Test C postemergence; type: in vivo, Digitaria sanguinalis; settings: for Plant response rating, Crabgrass, Large: Postemergence
Summary of the method: (§1)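 Seeds are planted in blended loam soil and sand and treated preemergence, while seedlings in a peat moss/vermiculite medium receive postemergence sprays at 2 to 18 cm height. All plants stay in the greenhouse for 13 to 15 days before visual comparison with controls on a 0–100 scale.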

[2] = tested on: wild oat; experiment: Test C postemergence; type: in vivo, Avena fatua; settings: for Plant response rating, Oat, Wild: Postemergence
Summary of the method: as §1

[3] = tested on: johnsongrass; experiment: Test C postemergence; type: in vivo, Sorghum halepense; settings: for Plant response rating, Johnsongrass: Postemergence
Summary of the method: as §1

[4] = tested on: barnyardgrass; experiment: Test A preemergence; type: in vivo, Echinochloa crus-galli; settings: for Barnyardgrass plant response rating: 0 to 100 scale, 0 no effect, 100 complete control, approx. 10 days
Summary of the method: (§2)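 Injury scores run from 0, no effect, to 100, complete control, judged by eye against untreated plants roughly 10 days after treatment. Chemicals carried a surfactant in a non-phytotoxic solvent and went onto loam–sand soil preemergence or onto one- to two-leaf seedlings postemergence.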

[5] = tested on: lambsquarters; experiment: Test C postemergence; type: in vivo, Chenopodium album; settings: for Plant response rating, Lambsquarters: Postemergence
Summary of the method: as §1

[6] = tested on: oilseed rape; experiment: Test C postemergence; type: in vivo, Brassica napus; settings: for Plant response rating, Oilseed Rape: Postemergence
Summary of the method: as §1

[7] = tested on: velvetleaf; experiment: Test A postemergence; type: in vivo, Abutilon theophrasti
Summary of the method: as §2

[8] = tested on: waterhemp; experiment: Test C postemergence; type: in vivo, Amaranthus rudis; settings: for Plant response rating, Waterhemp: Postemergence
Summary of the method: as §1

[9] = tested on: pigweed; experiment: Test A preemergence; type: in vivo, Amaranthus retroflexus; settings: for Pigweed plant response rating: 0 to 100 scale, 0 no effect, 100 complete control, approx. 10 days
Summary of the method: as §2

[10] = tested on: galium; experiment: Test C postemergence; type: in vivo, Galium aparine; settings: for Plant response rating, Galium: Postemergence
Summary of the method: as §1

[11] = tested on: wheat; experiment: Test A preemergence; type: in vivo, Triticum aestivum; settings: for Wheat plant response rating: 0 to 100 scale, 0 no effect, 100 complete control, approx. 10 days
Summary of the method: as §2

[12] = tested on: giant foxtail; experiment: Test A preemergence; type: in vivo, Setaria faberii; settings: for Foxtail, Giant plant response rating: 0 to 100 scale, 0 no effect, 100 complete control, approx. 10 days
Summary of the method: as §2

[13] = tested on: blackgrass; experiment: Test C postemergence; type: in vivo, Alopecurus myosuroides; settings: for Plant response rating, Blackgrass: Postemergence
Summary of the method: as §1

[14] = tested on: barnyardgrass; experiment: Test C postemergence; type: in vivo, Echinochloa crus-galli; settings: for Plant response rating, Barnyardgrass: Postemergence
Summary of the method: as §1

[15] = tested on: pigweed; experiment: Test A postemergence; type: in vivo, Amaranthus retroflexus
Summary of the method: as §2

[16] = 8 g ai/ha, postemergence, 0 is no effect, 100 is complete control
[17] = 16 g ai/ha, postemergence, 0 is no effect, 100 is complete control
[18] = 31 g ai/ha, postemergence, visual rating, scale 0 to 100 (0 no effect, 100 complete control), 13 to 15 days
[19] = 62 g ai/ha, scale 0 to 100 (0 no effect, 100 complete control), 13 to 15 days
[20] = 1000 g ai/ha, 0 to 100 scale, 0 no effect, 100 complete control
[21] = 62 g ai/ha, scale 0 to 100 (0 no effect, 100 complete control)
[22] = 31 g ai/ha, scale 0 to 100 (0 no effect, 100 complete control), 13 to 15 days
[23] = 125 g ai/ha, 0 to 100 scale where 0 is no effect and 100 is complete control
[24] = 500 g ai/ha, 0 to 100 scale, 0 no effect, 100 complete control

## Clc1cnc(Oc2ccccc2-n2cc(I)nn2)nc1 [Compound 222]
[1]; [16]
  Plant response rating (0 to 100), Crabgrass, Large: 5
[1]; [17]
  Plant response rating (0 to 100), Crabgrass, Large: 5
[1]; [18]
  Crabgrass, Large plant response rating: 5
[1]; [19]
  Plant response rating, Crabgrass, Large: 5
[2]; [16]
  Plant response rating (0 to 100), Oat, Wild: 5
[2]; [17]
  Plant response rating (0 to 100), Oat, Wild: 10
[2]; [18]
  Oat, Wild plant response rating: 10
[2]; [19]
  Plant response rating, Oat, Wild: 30
[3]; [16]
  Plant response rating (0 to 100), Johnsongrass: 0
[3]; [17]
  Plant response rating (0 to 100), Johnsongrass: 0
[3]; [18]
  Johnsongrass plant response rating: 10
[3]; [19]
  Plant response rating, Johnsongrass: 10
[4]; 1000 g ai/ha
  Barnyardgrass plant response rating: 100
[5]; [16]
  Plant response rating (0 to 100), Lambsquarters: 50
[5]; [17]
  Plant response rating (0 to 100), Lambsquarters: 65
[5]; [18]
  Lambsquarters plant response rating: 65
[5]; [19]
  Plant response rating, Lambsquarters: 75
[6]; [16]
  Plant response rating (0 to 100), Oilseed Rape: 10
[6]; [17]
  Plant response rating (0 to 100), Oilseed Rape: 5
[6]; [18]
  Oilseed Rape plant response rating: 10
[6]; [19]
  Plant response rating, Oilseed Rape: 20
[7]; [20]
  Plant response rating, Velvetleaf: 100
[8]; [16]
  Plant response rating (0 to 100), Waterhemp: 60
[8]; [17]
  Plant response rating (0 to 100), Waterhemp: 70
[8]; [18]
  Waterhemp plant response rating: 90
[8]; [19]
  Plant response rating, Waterhemp: 90
[9]; 1000 g ai/ha
  Pigweed plant response rating: 100
[10]; [16]
  Plant response rating (0 to 100), Galium: 65
[10]; [17]
  Plant response rating (0 to 100), Galium: 70
[10]; [18]
  Galium plant response rating: 85
[10]; [19]
  Plant response rating, Galium: 85
[11]; 1000 g ai/ha
  Wheat plant response rating: 70
[12]; 1000 g ai/ha
  Foxtail, Giant plant response rating: 100
[13]; [16]
  Plant response rating (0 to 100), Blackgrass: 0
[13]; [17]
  Plant response rating (0 to 100), Blackgrass: 5
[13]; [18]
  Blackgrass plant response rating: 30
[13]; [19]
  Plant response rating, Blackgrass: 60
[14]; [16]
  Plant response rating (0 to 100), Barnyardgrass: 5
[14]; [17]
  Plant response rating (0 to 100), Barnyardgrass: 5
[14]; [18]
  Barnyardgrass plant response rating: 10
[14]; [21]
  Plant response rating, Barnyardgrass: 15
[15]; [20]
  Plant response rating, Pigweed: 100

## Fc1cnc(Oc2ccccc2-n2cc(C(F)(F)F)cn2)nc1 [Compound 47]
[1]; 125 g ai/ha, postemergence
  Plant response rating (0 to 100), Crabgrass, Large: 5
[1]; 250 g ai/ha, postemergence
  Plant response rating (0 to 100), Crabgrass, Large: 10
[1]; [22]
  Plant response rating, Crabgrass, Large: 5
[1]; [21]
  Plant response rating, Crabgrass, Large: 5
[2]; 125 g ai/ha, postemergence
  Plant response rating (0 to 100), Oat, Wild: 0
[2]; 250 g ai/ha, postemergence
  Plant response rating (0 to 100), Oat, Wild: 5
[2]; [22]
  Plant response rating, Oat, Wild: 0
[2]; [21]
  Plant response rating, Oat, Wild: 0
[3]; 125 g ai/ha, postemergence
  Plant response rating (0 to 100), Johnsongrass: 5
[3]; 250 g ai/ha, postemergence
  Plant response rating (0 to 100), Johnsongrass: 5
[3]; [22]
  Plant response rating, Johnsongrass: 0
[3]; [21]
  Plant response rating, Johnsongrass: 5
[4]; [23]
  Plant response rating, Barnyardgrass: 20
[4]; 500 g ai/ha
  Barnyardgrass plant response rating: 100
[5]; 125 g ai/ha, postemergence
  Plant response rating (0 to 100), Lambsquarters: 60
[5]; 250 g ai/ha, postemergence
  Plant response rating (0 to 100), Lambsquarters: 90
[5]; [22]
  Plant response rating, Lambsquarters: 30
[5]; [21]
  Plant response rating, Lambsquarters: 45
[6]; 125 g ai/ha, postemergence
  Plant response rating (0 to 100), Oilseed Rape: 55
[6]; 250 g ai/ha, postemergence
  Plant response rating (0 to 100), Oilseed Rape: 55
[6]; [22]
  Plant response rating, Oilseed Rape: 15
[6]; [21]
  Plant response rating, Oilseed Rape: 50
[7]; [23]
  Plant response rating, Velvetleaf: 100
[7]; [24]
  Plant response rating, Velvetleaf: 100
[8]; 125 g ai/ha, postemergence
  Plant response rating (0 to 100), Waterhemp: 100
[8]; 250 g ai/ha, postemergence
  Plant response rating (0 to 100), Waterhemp: 100
[8]; [22]
  Plant response rating, Waterhemp: 100
[8]; [21]
  Plant response rating, Waterhemp: 100
[9]; [23]
  Plant response rating, Pigweed: 100
[9]; 500 g ai/ha
  Pigweed plant response rating: 100
[10]; 125 g ai/ha, postemergence
  Plant response rating (0 to 100), Galium: 55
[10]; 250 g ai/ha, postemergence
  Plant response rating (0 to 100), Galium: 65
[10]; [22]
  Plant response rating, Galium: 35
[10]; [21]
  Plant response rating, Galium: 50
[11]; [23]
  Plant response rating, Wheat: 0
[11]; 500 g ai/ha
  Wheat plant response rating: 40
[12]; [23]
  Plant response rating, Foxtail, Giant: 100
[12]; 500 g ai/ha
  Foxtail, Giant plant response rating: 100
[13]; 125 g ai/ha, postemergence
  Plant response rating (0 to 100), Blackgrass: 5
[13]; 250 g ai/ha, postemergence
  Plant response rating (0 to 100), Blackgrass: 40
[13]; [22]
  Plant response rating, Blackgrass: 0
[13]; [21]
  Plant response rating, Blackgrass: 0
[14]; 125 g ai/ha, postemergence
  Plant response rating (0 to 100), Barnyardgrass: 0
[14]; 250 g ai/ha, postemergence
  Plant response rating (0 to 100), Barnyardgrass: 5
[14]; [22]
  Plant response rating, Barnyardgrass: 0
[14]; [21]
  Plant response rating, Barnyardgrass: 0
[15]; [23]
  Plant response rating, Pigweed: 100
[15]; [24]
  Plant response rating, Pigweed: 100
